Results from the supplement of paper PMC10307832.

Tests used:
Experiment in all cases: relative viability (nuclei count vs DMSO), 5 days (fraction); higher = more cells survive
[1] = compound: CC1=CC(=CC=C1)NC2=NC(=CS2)C3=CC=NC=C3 + COc1cccc2cc(-c3nc([C@H]4CC[C@H](C(=O)O)CC4)n4ncnc(N)c34)[nH]c12 [OSI-027] (partner 0.5 µM)
How it was run: (§1)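 Five library-drug doses in √10 steps were combined with a fixed anchor-drug dose, or a single drug was given alone, by pin tool to lung cancer cell lines in 1536-well plates the day after seeding. Nuclei were stained and counted after 5 days. Relative viability is the nuclei count in treated wells over that in vehicle wells, taken as the median of duplicate plates.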

Masitinib + OSI-027 = compound: Cc1ccc(NC(=O)c2ccc(CN3CCN(C)CC3)cc2)cc1Nc1nc(-c2cccnc2)cs1 [Masitinib] + COc1cccc2cc(-c3nc([C@H]4CC[C@H](C(=O)O)CC4)n4ncnc(N)c34)[nH]c12 [OSI-027] (partner 0.5 µM)
How it was run: as §1

[2] = compound: CC1=CC(=CC=C1)NC2=NC(=CS2)C3=CC=NC=C3 + C[C@@H](Oc1cc(-c2cnn(C3CCNCC3)c2)cnc1N)c1c(Cl)ccc(F)c1Cl [Crizotinib] (partner 1 µM)
How it was run: as §1

[3] = compound: CC1=CC(=CC=C1)NC2=NC(=CS2)C3=CC=NC=C3 + Nc1ncn([C@H]2C[C@H](O)[C@@H](CO)O2)c(=O)n1 [Decitabine] (partner 2 µM)
How it was run: as §1

Cell Line | relative viability ([1]; first compound 0.08 µM) | relative viability ([1]; first compound 0.8 µM) | relative viability ([1]; first compound 2.53 µM) | relative viability ([1]; first compound 8 µM) | relative viability (Masitinib + OSI-027; first compound 0.01 µM) | relative viability (Masitinib + OSI-027; first compound 0.03162 µM) | relative viability (Masitinib + OSI-027; first compound 0.1 µM) | relative viability (Masitinib + OSI-027; first compound 0.3162 µM) | relative viability (Masitinib + OSI-027; first compound 1 µM) | relative viability ([2]; first compound 0.08 µM) | relative viability ([2]; first compound 0.253 µM) | relative viability ([2]; first compound 0.8 µM) | relative viability ([2]; first compound 2.53 µM) | relative viability ([2]; first compound 8 µM) | relative viability ([3]; first compound 0.08 µM) | relative viability ([3]; first compound 0.253 µM) | relative viability ([3]; first compound 0.8 µM) | relative viability ([3]; first compound 2.53 µM) | relative viability ([3]; first compound 8 µM) | relative viability ([1]; first compound 0.253 µM)
NCI-H1792 | 0.541 | 0.613 | 0.443 | 0.401 | 0.762 | 0.402 | 0.71 | 0.563 | 0.9 | 0.99 | 0.767 | 0.886 | 0.815 | 0.947 | 0.479 | 0.384 | 0.481 | 0.548 | 0.449 | –
HCC-78 | – | 0.392 | 0.308 | 0.435 | 0.36 | 0.337 | 0.364 | 0.337 | 0.335 | 0.324 | 0.312 | 0.311 | 0.333 | 0.346 | 0.727 | 0.613 | 0.614 | 0.613 | 0.661 | 0.371
IA-LM | – | – | – | – | – | – | – | – | – | 0.519 | 0.581 | 0.86 | 0.563 | 0.466 | – | – | – | – | – | –
NCI-H441 | 0.492 | 0.605 | 0.61 | 0.672 | 0.654 | 0.628 | 0.798 | 0.717 | 0.429 | 0.751 | 0.831 | 0.791 | 0.69 | 0.663 | 0.266 | 0.263 | 0.302 | 0.226 | 0.243 | 0.499
NCI-H322M | 0.418 | 0.574 | 0.519 | 0.565 | 0.64 | 0.531 | 0.605 | 0.551 | 0.514 | 0.846 | 0.808 | 0.775 | 0.859 | 0.834 | 0.736 | 0.703 | 0.67 | 0.706 | 0.691 | 0.508
LU99A | 0.271 | 0.296 | 0.284 | 0.288 | 0.257 | 0.331 | 0.311 | 0.316 | 0.29 | – | 0.546 | 0.717 | 0.52 | 0.718 | 0.889 | 0.939 | 0.787 | 0.709 | 0.879 | 0.271
COR-L23 | 0.587 | 0.555 | 0.64 | 0.503 | 0.893 | 0.737 | 0.776 | 0.751 | 0.738 | 0.553 | 0.483 | 0.487 | 0.646 | 0.583 | 0.404 | 0.378 | 0.429 | 0.379 | 0.388 | 0.66
NCI-H2126 | 0.608 | 0.674 | 0.631 | 0.651 | 0.697 | 0.727 | 0.653 | 0.602 | 0.657 | 0.975 | 1.01 | 1 | 0.983 | 0.846 | 0.525 | 0.56 | 0.559 | 0.572 | 0.578 | 0.582
LC-2-ad | 0.785 | 0.74 | 0.79 | 0.728 | 0.862 | 0.904 | 0.929 | 0.738 | 0.768 | 0.45 | 0.419 | 0.394 | 0.397 | 0.396 | 0.754 | 0.776 | 0.793 | 0.799 | 0.69 | –
NCI-H1975 | 0.699 | 0.628 | 0.483 | 0.267 | 0.937 | 0.793 | 0.864 | – | 0.509 | 0.819 | 0.737 | 0.862 | 0.758 | 0.722 | 0.326 | 0.336 | 0.381 | 0.356 | 0.245 | 0.653
NCI-H1299 | – | – | – | – | – | – | – | – | – | 0.89 | 0.891 | 0.924 | 0.931 | 0.804 | – | – | – | – | – | –
NCI-H1703 | – | – | – | – | – | – | – | – | – | 0.73 | 1.01 | 0.683 | 0.878 | 0.799 | – | – | – | – | – | –
NCI-H2228 | 0.375 | 0.517 | 0.472 | 0.398 | 0.633 | 0.661 | 0.638 | 0.807 | 0.528 | 0.318 | 0.334 | 0.4 | 0.457 | 0.352 | – | – | – | – | – | 0.463
NCI-H522 | 0.71 | 0.737 | 0.735 | 0.775 | 0.784 | – | 0.781 | 0.781 | 0.698 | – | – | – | – | – | 0.702 | 0.63 | 0.708 | 0.801 | 0.677 | 0.649
NCI-H1648 | 0.259 | 0.276 | 0.258 | 0.255 | 0.272 | – | 0.236 | 0.268 | 0.254 | – | – | – | – | – | 0.345 | 0.42 | 0.496 | 0.356 | 0.376 | 0.277
NCI-H1793 | 0.238 | 0.315 | 0.249 | 0.217 | 0.318 | 0.205 | 0.285 | 0.28 | 0.254 | – | – | – | – | – | 0.513 | 0.481 | 0.489 | 0.472 | 0.238 | 0.25
NCI-H1563 | 0.723 | 0.842 | 0.779 | 0.697 | 0.741 | 0.717 | 0.781 | 0.738 | 0.705 | 0.958 | 0.916 | 0.887 | 0.909 | 0.86 | – | – | – | – | – | 0.775
NCI-H2342 | 0.623 | 0.65 | 0.5 | 0.607 | 0.637 | 0.58 | 0.696 | 0.592 | 0.593 | – | – | – | – | – | 0.691 | 0.773 | 0.657 | 0.77 | 0.761 | 0.588
SW 900 | 0.443 | 0.549 | 0.356 | 0.355 | 0.654 | 0.443 | 0.627 | 0.527 | 0.482 | – | – | – | – | – | 0.443 | 0.381 | 0.353 | 0.389 | 0.441 | 0.539
NCI-H1395 | 0.555 | 0.663 | 0.505 | 0.638 | 0.647 | 0.609 | 0.71 | 0.563 | 0.623 | – | – | – | – | – | 0.666 | – | 0.685 | 0.677 | 0.761 | 0.567
A549 | – | – | – | – | – | – | – | – | – | 0.75 | 0.73 | 0.776 | 0.735 | 0.627 | 0.281 | 0.173 | 0.284 | 0.275 | 0.256 | –
